In ChEMBL document CHEMBL4346657, “Anticancer activity, dual prooxidant/antioxidant effect and apoptosis induction profile of new bichalcophene-5-carboxamidines” (Eur J Med Chem, 2019):

Tests used:
UO-31 = test: Antiproliferative activity against human UO31 cells assessed as growth inhibition after 48 hrs by sulforhodamine B assay; assay type: functional; conditions: UO-31, 48 h
[1] = tested on: Panel NCI-60 (60 carcinoma cell lines); test: Antiproliferative activity against human NCI60 cells assessed as growth inhibition after 48 hrs by sulforhodamine B assay; assay type: functional
WI-38 = test: Cytotoxicity activity against human WI38 cells assessed as reduction in cell viability measured after 48 hrs by MTT assay; assay type: cell-based; conditions: WI-38, 48 h
[2] = Selectivity index, ratio of IC50 for human WI38 cells to GI50 for human NCI60 cells
PC-3 = test: Antiproliferative activity against human PC3 cells assessed as growth inhibition after 48 hrs by sulforhodamine B assay; assay type: functional; conditions: PC-3, 48 h
MDA-MB-231 = test: Antiproliferative activity against human MDA-MB-231/ATCC cells assessed as growth inhibition after 48 hrs by sulforhodamine B assay; assay type: functional; conditions: MDA-MB-231, 48 h
OVCAR-3 = test: Antiproliferative activity against human OVCAR3 cells assessed as growth inhibition after 48 hrs by sulforhodamine B assay; assay type: functional; conditions: OVCAR-3, 48 h
SN12C = test: Antiproliferative activity against human SN12C cells assessed as growth inhibition after 48 hrs by sulforhodamine B assay; assay type: functional
RXF 393 = test: Antiproliferative activity against human RXF393 cells assessed as growth inhibition after 48 hrs by sulforhodamine B assay; assay type: functional; conditions: RXF 393, 48 h
CAKI-1 = test: Antiproliferative activity against human CAKI-1 cells assessed as growth inhibition after 48 hrs by sulforhodamine B assay; assay type: functional; conditions: CAKI-1, 48 h
ACHN = test: Antiproliferative activity against human ACHN cells assessed as growth inhibition after 48 hrs by sulforhodamine B assay; assay type: functional
A498 = test: Antiproliferative activity against human A498 cells assessed as growth inhibition after 48 hrs by sulforhodamine B assay; assay type: functional; conditions: A498, 48 h
786-0 = test: Antiproliferative activity against human 786-0 cells assessed as growth inhibition after 48 hrs by sulforhodamine B assay; assay type: functional; conditions: 786-0, 48 h
NCI/ADR-RES = test: Antiproliferative activity against human NCI-ADR-RES cells assessed as growth inhibition after 48 hrs by sulforhodamine B assay; assay type: functional
OVCAR-5 = test: Antiproliferative activity against human OVCAR5 cells assessed as growth inhibition after 48 hrs by sulforhodamine B assay; assay type: functional; conditions: OVCAR-5, 48 h
IGROV-1 = test: Antiproliferative activity against human IGROV1 cells assessed as growth inhibition after 48 hrs by sulforhodamine B assay; assay type: functional; conditions: IGROV-1, 48 h
SK-MEL-5 = test: Antiproliferative activity against human SK-MEL-5 cells assessed as growth inhibition after 48 hrs by sulforhodamine B assay; assay type: functional; conditions: SK-MEL-5, 48 h
SK-MEL-28 = test: Antiproliferative activity against human SK-MEL-28 cells assessed as growth inhibition after 48 hrs by sulforhodamine B assay; assay type: functional; conditions: SK-MEL-28, 48 h
SK-MEL-2 = test: Antiproliferative activity against human SK-MEL-2 cells assessed as growth inhibition after 48 hrs by sulforhodamine B assay; assay type: functional; conditions: SK-MEL-2, 48 h
MDA-MB-435 = test: Antiproliferative activity against human MDA-MB-435 cells assessed as growth inhibition after 48 hrs by sulforhodamine B assay; assay type: functional; conditions: MDA-MB-435, 48 h
M14 = test: Antiproliferative activity against human M14 cells assessed as growth inhibition after 48 hrs by sulforhodamine B assay; assay type: functional; conditions: M14, 48 h
SNB-75 = test: Antiproliferative activity against human SNB75 cells assessed as growth inhibition after 48 hrs by sulforhodamine B assay; assay type: functional; conditions: SNB-75, 48 h
SNB-19 = test: Antiproliferative activity against human SNB19 cells assessed as growth inhibition after 48 hrs by sulforhodamine B assay; assay type: functional; conditions: SNB-19, 48 h
SF-295 = test: Antiproliferative activity against human SF295 cells assessed as growth inhibition after 48 hrs by sulforhodamine B assay; assay type: functional; conditions: SF-295, 48 h
KM12 = test: Antiproliferative activity against human KM12 cells assessed as growth inhibition after 48 hrs by sulforhodamine B assay; assay type: functional; conditions: KM12, 48 h
HCT-15 = test: Antiproliferative activity against human HCT15 cells assessed as growth inhibition after 48 hrs by sulforhodamine B assay; assay type: functional; conditions: HCT-15, 48 h
COLO 205 = test: Antiproliferative activity against human COLO205 cells assessed as growth inhibition after 48 hrs by sulforhodamine B assay; assay type: functional; conditions: COLO 205, 48 h
NCI-H522 = test: Antiproliferative activity against human NCI-H522 cells assessed as growth inhibition after 48 hrs by sulforhodamine B assay; assay type: functional; conditions: NCI-H522, 48 h
NCI-H460 = test: Antiproliferative activity against human NCI-H460 cells assessed as growth inhibition after 48 hrs by sulforhodamine B assay; assay type: functional; conditions: NCI-H460, 48 h
NCI-H322M = test: Antiproliferative activity against human NCI-H322M cells assessed as growth inhibition after 48 hrs by sulforhodamine B assay; assay type: functional
NCI-H226 = test: Antiproliferative activity against human NCI-H226 cells assessed as growth inhibition after 48 hrs by sulforhodamine B assay; assay type: functional; conditions: NCI-H226, 48 h
EKVX = test: Antiproliferative activity against human EKVX cells assessed as growth inhibition after 48 hrs by sulforhodamine B assay; assay type: functional
K562 = test: Antiproliferative activity against human K562 cells assessed as growth inhibition after 48 hrs by sulforhodamine B assay; assay type: functional, cell-based; conditions: K562, 48 h; for IC50: read-out: IC50
HL-60(TB) = test: Antiproliferative activity against human HL-60(TB) cells assessed as growth inhibition after 48 hrs by sulforhodamine B assay; assay type: functional; conditions: HL-60, 48 h
CCRF-CEM = test: Antiproliferative activity against human CCRF-CEM cells assessed as growth inhibition after 48 hrs by sulforhodamine B assay; assay type: functional
Hs-578T = test: Antiproliferative activity against human Hs578T cells assessed as growth inhibition after 48 hrs by sulforhodamine B assay; assay type: functional
BT-549 = test: Antiproliferative activity against human BT549 cells assessed as growth inhibition after 48 hrs by sulforhodamine B assay; assay type: functional; conditions: BT-549, 48 h
[3] = Haemolytic activity in human erythrocytes assessed as induction of hemolysis at 5 mM after 30 mins relative to H202; assay type: cell-based, Erythrocyte; conditions: read-out: Activity
Erythrocyte = test: Haemolytic activity in human erythrocytes assessed as induction of hemolysis at 0.625 mM after 30 mins relative to H202; assay type: cell-based; conditions: erythrocyte, 0.5 h, 625 µM
[4] = Antioxidant activity assessed as ABTS radical scavenging activity by spectrophotometric method relative to ascorbic acid; assay type: functional
HCT-116 [5] = test: Induction of apoptosis in human HCT116 cells assessed as increase in p53 mRNA expression at 100 nM after 6 hrs hrs by SYBR green dye-based qRT-PCR analysis relative to control; assay type: functional
HCT-116 [6] = test: […] in CDK1 mRNA expression in human HCT116 cells at 100 nM after 6 hrs hrs by SYBR green dye-based qRT-PCR analysis relative to control; assay type: functional

SMILES: N=C(N)c1ccc(-c2ccc(-c3ccc(Cl)cc3)s2)s1
- GI50 (UO-31): 1750 nM
- GI50 [1]: 1730 nM
- LC50 [1]: 29.5 µM
- TGI [1]: 4.07 µM
- IC50 (WI-38): 69.2 µM
- Selectivity Index [2]: 40
- GI50 (PC-3): 1860 nM
- GI50 (MDA-MB-231): 1800 nM
- GI50 (OVCAR-3): 1740 nM
- GI50 (SN12C): 1910 nM
- GI50 (RXF 393): 1710 nM
- GI50 (CAKI-1): 1610 nM
- GI50 (ACHN): 1750 nM
- GI50 (A498): 13000 nM
- GI50 (786-0): 1790 nM
- GI50 (NCI/ADR-RES): 1850 nM
- GI50 (OVCAR-5): 1580 nM
- GI50 (IGROV-1): 1830 nM
- GI50 (SK-MEL-5): 3160 nM
- GI50 (SK-MEL-28): 1680 nM
- GI50 (SK-MEL-2): 2380 nM
- GI50 (MDA-MB-435): 1640 nM
- GI50 (M14): 1710 nM
- GI50 (SNB-75): 1490 nM
- GI50 (SNB-19): 1920 nM
- GI50 (SF-295): 1630 nM
- GI50 (KM12): 1690 nM
- GI50 (HCT-15): 1200 nM
- GI50 (COLO 205): 1440 nM
- GI50 (NCI-H522): 1830 nM
- GI50 (NCI-H460): 1510 nM
- GI50 (NCI-H322M): 1630 nM
- GI50 (NCI-H226): 2190 nM
- GI50 (EKVX): 1640 nM
- IC50 (K562): 670 nM
- GI50 (HL-60(TB)): 1490 nM
- GI50 (CCRF-CEM): 1840 nM
- GI50 (Hs-578T): 2.14 µM
- GI50 (BT-549): 2.11 µM
- hemolysis at 0.5 h, 5000 µM [3]: 49%
- Activity (Erythrocyte): Non-Toxic
- fold change (FC) [4]: 0.9
- fold change (FC) (HCT-116 [5]): 0.89
- fold change (FC) (HCT-116 [6]): 1.08

SMILES: COc1cc(OC)cc(-c2ccc(-c3ccc(C(=N)N)o3)o2)c1
- GI50 (UO-31): 2670 nM
- GI50 [1]: 3020 nM
- LC50 [1]: 22.9 µM
- TGI [1]: 8.12 µM
- IC50 (WI-38): 81.6 µM
- Selectivity Index [2]: 27
- GI50 (PC-3): 4770 nM
- GI50 (MDA-MB-231): 2350 nM
- GI50 (OVCAR-3): 3260 nM
- GI50 (SN12C): 2380 nM
- GI50 (RXF 393): 1930 nM
- GI50 (CAKI-1): 4330 nM
- GI50 (ACHN): 2050 nM
- GI50 (A498): 2890 nM
- GI50 (786-0): 4150 nM
- GI50 (NCI/ADR-RES): 8260 nM
- GI50 (OVCAR-5): 2340 nM
- GI50 (IGROV-1): 2970 nM
- GI50 (SK-MEL-5): 1950 nM
- GI50 (SK-MEL-28): 1820 nM
- GI50 (SK-MEL-2): 2440 nM
- GI50 (MDA-MB-435): 1520 nM
- GI50 (M14): 2070 nM
- GI50 (SNB-75): 2200 nM
- GI50 (SNB-19): 3020 nM
- GI50 (SF-295): 2080 nM
- GI50 (KM12): 2450 nM
- GI50 (HCT-15): 3180 nM
- GI50 (COLO 205): 1840 nM
- GI50 (NCI-H522): 2300 nM
- GI50 (NCI-H460): 2320 nM
- GI50 (NCI-H322M): 2860 nM
- GI50 (NCI-H226): 2260 nM
- GI50 (EKVX): 5090 nM
- GI50 (K562): 1980 nM
- IC50 (K562): 1890 nM
- GI50 (HL-60(TB)): 1900 nM
- GI50 (CCRF-CEM): 2720 nM
- GI50 (Hs-578T): 8.12 µM
- GI50 (BT-549): 6.91 µM
- hemolysis at 0.5 h, 5000 µM [3]: 7.5%
- Activity (Erythrocyte): Non-Toxic
- fold change (FC) [4]: 0.4
- fold change (FC) (HCT-116 [5]): 0.9
- fold change (FC) (HCT-116 [6]): 1.24

SMILES: COc1ccc(-c2ccc(-c3ccc(C(=N)N)o3)o2)cc1
- GI50 (UO-31): 1720 nM
- GI50 [1]: 1740 nM
- LC50 [1]: 20.4 µM
- TGI [1]: 5.89 µM
- IC50 (WI-38): 72.9 µM
- Selectivity Index [2]: 41.8
- GI50 (PC-3): 1880 nM
- GI50 (MDA-MB-231): 1900 nM
- GI50 (OVCAR-3): 920 nM
- GI50 (SN12C): 2020 nM
- GI50 (RXF 393): 2120 nM
- GI50 (CAKI-1): 1750 nM
- GI50 (ACHN): 1800 nM
- GI50 (A498): 1760 nM
- GI50 (786-0): 2220 nM
- GI50 (NCI/ADR-RES): 1880 nM
- GI50 (OVCAR-5): 2430 nM
- GI50 (IGROV-1): 1730 nM
- GI50 (SK-MEL-5): 2800 nM
- GI50 (SK-MEL-28): 1670 nM
- GI50 (SK-MEL-2): 5710 nM
- GI50 (MDA-MB-435): 290 nM
- GI50 (M14): 1470 nM
- GI50 (SNB-75): 1470 nM
- GI50 (SNB-19): 1990 nM
- GI50 (SF-295): 1680 nM
- GI50 (KM12): 590 nM
- GI50 (HCT-15): 670 nM
- GI50 (COLO 205): 1250 nM
- GI50 (NCI-H522): 1090 nM
- GI50 (NCI-H460): 1170 nM
- GI50 (NCI-H322M): 2260 nM
- GI50 (NCI-H226): 22000 nM
- GI50 (EKVX): 2790 nM
- IC50 (K562): 490 nM
- GI50 (HL-60(TB)): 1230 nM
- GI50 (CCRF-CEM): 1840 nM
- GI50 (Hs-578T): 4.33 µM
- GI50 (BT-549): 4.55 µM
- hemolysis at 0.5 h, 5000 µM [3]: 36.3%
- Activity (Erythrocyte): Non-Toxic
- fold change (FC) [4]: 0.7
- fold change (FC) (HCT-116 [5]): 0.94
- fold change (FC) (HCT-116 [6]): 1.02
